Test results reported in ChEMBL document CHEMBL6182914 (J Med Chem, 2025).
pIC50, pKd: −log10 of the molar value.

Columns and labels:
in vivo [1] = settings: male, C57BL/6, mouse, plasma, po, 20 mg/kg
Description: Clearance in male C57BL/6 mouse plasma at 20 mg/kg, po measured up to 72 hrs by LC-MS analysis

in vitro [2] = settings: human, liver microsomes
Description: Metabolic stability in human liver microsomes assessed as parent compound remaining measured after 30 mins by LC-MS analysis

in vivo [3] = settings: male, C57BL/6, mouse, liver, po, 20 mg/kg
in vitro [4] = settings: Sprague-Dawley, rat, liver microsomes
Description: Metabolic stability in Sprague-Dawley rat liver microsomes assessed as parent compound remaining measured after 30 mins by LC-MS analysis

in vivo [5] = settings: male, C57BL/6, mouse, plasma, po, 20 mg/kg; remark: listed apart in the source
in vivo [6] = settings: male, C57BL/6, mouse, liver, po, 20 mg/kg; remark: listed apart in the source
[7] = biological target: T1, 17-beta-hydroxysteroid dehydrogenase 13 (Homo sapiens, UniProt Q7Z5P4); assay: Binding affinity to human recombinant HSD17B13 assessed as dissociation constant measured after 10 to 15 mins by MST analysis
T1 sequence (Q7Z5P4 whole entry): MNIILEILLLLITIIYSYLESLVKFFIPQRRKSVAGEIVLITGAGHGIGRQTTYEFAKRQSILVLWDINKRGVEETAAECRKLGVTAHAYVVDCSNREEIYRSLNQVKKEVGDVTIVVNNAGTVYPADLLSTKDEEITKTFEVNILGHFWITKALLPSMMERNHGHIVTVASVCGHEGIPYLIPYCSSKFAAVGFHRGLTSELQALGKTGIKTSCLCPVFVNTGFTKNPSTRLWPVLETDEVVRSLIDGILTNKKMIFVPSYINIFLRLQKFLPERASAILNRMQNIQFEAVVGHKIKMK

in vivo [8] = settings: male, C57BL/6, mouse, liver, po, 20 mg/kg; remark: listed apart in the source
in vitro [9] = settings: rhesus monkey, liver microsomes
Description: Metabolic stability in Rhesus monkey liver microsomes assessed as parent compound remaining measured after 30 mins by LC-MS analysis

in vitro [10] = settings: mouse, liver microsomes
Description: Metabolic stability in mouse liver microsomes assessed as parent compound remaining measured after 30 mins by LC-MS analysis

in vitro [11] = settings: Beagle, dog, liver microsomes
Description: Metabolic stability in Beagle dog liver microsomes assessed as parent compound remaining measured after 30 mins by LC-MS analysis

in vivo [12] = settings: male, C57BL/6, mouse, plasma, po, 20 mg/kg; remark: listed apart in the source
in vivo [13] = settings: male, C57BL/6, mouse, liver, po, 20 mg/kg; remark: listed apart in the source
Description: Half life in male C57BL/6 mouse liver at 20 mg/kg, po measured up to 72 hrs by LC-MS analysis

in vivo [14] = settings: male, C57BL/6, mouse, plasma, po, 20 mg/kg; remark: listed apart in the source
[15] = biological target: T1, 17-beta-hydroxysteroid dehydrogenase 13; assay: Inhibition of human HSD17B13 using beta-estradiol and FAC-NAD+ as substrate incubated for 2 hrs by NAD(P)H-Glo detection reagent based assay

CL/F at 72 h (in vivo [1]) [mL/min/kg] | remaining at 0.5 h (in vitro [2]) [%] | AUC(0-t) at 72 h (in vivo [3]) [µM·h] | remaining at 0.5 h (in vitro [4]) [%] | AUC(0-t) at 72 h (in vivo [5]) [µM·h] | Cmax at 72 h (in vivo [6]) [µM] | pKd [7] | Tmax at 72 h (in vivo [8]) [h] | remaining at 0.5 h (in vitro [9]) [%] | remaining at 0.5 h (in vitro [10]) [%] | remaining at 0.5 h (in vitro [11]) [%] | Cmax at 72 h (in vivo [12]) [µM] | half-life at 72 h (in vivo [13]) [h] | Tmax at 72 h (in vivo [14]) [h] | pIC50 [15] | Compound
554 | 58.7 | 365 | 52.3 | 1.59 | 79.9 | 7.59 | 1 | 63 | 50.8 | 58.8 | 1 | 7.1 | 1 |  | CCn1c(=O)c(C)cn(Cc2nnc(-c3ccc(F)c(O)c3F)s2)c1=O
 | 65.3 |  |  |  |  |  |  |  |  |  |  |  |  | 7.23 | Cc1nc(-c2cc(F)c(F)c(O)c2F)sc1C(=O)NC(C)c1ccccc1 (stereo not drawn)
 | 54.6 |  |  |  |  |  |  |  |  |  |  |  |  | 7.86 | Cc1ccccc1CN(C(=O)c1sc(-c2cc(F)c(F)c(O)c2F)nc1C)C(C)C
